Structures can show the parent of a compound that is named as a salt.
Columns and labels:
[1] = molecular target: Recombinant human MALT-1 (amino acids 340-824) (Homo sapiens (Human), UniProt Q9UDY8); experiment: MALT-1 inhibition assay (fluorogenic substrate Ac-LRSR-Rh110-DP); type: biochemical; conditions: recombinant human MALT-1, substrate Ac-LRSR-Rh110-DP
Summary of the method: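 MALT-1 at 3 nM final was reacted with 10 μM Ac-LRSR-Rh110-DP, with substrate addition starting the reaction. Incubation ran 60 minutes at 25° C in the dark. Percent inhibition from fluorescence across doses was fitted to a 4-parameter logistic to give IC50.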

[2] = system: IL-2 secretion by human effector memory T cells (TEM); experiment: Effector memory T cells IL-2 release assay; type: cell-based; conditions: T-cell; human CD4+ effector memory T cells, CD3/CD28 bead stimulation, 24 h; read-out: CD4TC IL2 IC50
Summary of the method: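 Human CD4+ effector memory T cells from healthy-donor buffy coats were stimulated with anti-CD3/CD28 Dynabeads and exposed to 10 semi-log compound doses (0.1% DMSO) for 24 h at 37 °C. Supernatant IL-2 was measured by HTRF, and IC50 came from a 4-parameter logistic fit to maximal IL-2. Viability was checked by flow cytometry.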

Sequence of Recombinant human MALT-1 (amino acids 340-824) (Q9UDY8 340-824): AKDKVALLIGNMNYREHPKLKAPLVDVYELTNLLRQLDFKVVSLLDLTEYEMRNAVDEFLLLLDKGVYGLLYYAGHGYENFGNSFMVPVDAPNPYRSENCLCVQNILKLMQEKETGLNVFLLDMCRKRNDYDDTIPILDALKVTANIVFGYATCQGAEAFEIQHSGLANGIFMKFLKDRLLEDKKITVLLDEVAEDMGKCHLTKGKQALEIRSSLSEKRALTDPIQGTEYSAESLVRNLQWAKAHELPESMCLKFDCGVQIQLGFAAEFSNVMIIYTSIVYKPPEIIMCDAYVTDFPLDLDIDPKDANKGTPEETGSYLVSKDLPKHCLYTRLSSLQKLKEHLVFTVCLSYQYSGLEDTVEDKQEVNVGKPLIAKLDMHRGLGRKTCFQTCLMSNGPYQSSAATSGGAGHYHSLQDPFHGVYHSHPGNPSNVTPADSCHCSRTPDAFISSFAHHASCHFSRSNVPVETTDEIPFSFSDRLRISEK

SMILES	IC50 [1]	IC50 [2]
CN(C(=O)[C@@H]1COC(=O)N1C)[C@@H](c1ccc(N2CCCc3c2cnc2cc(Cl)nn32)cc1)C(F)(F)F (relative stereo) [CPD0073571, (4rel-S)-N-[(1S)-1-(4-{4-chloro-2,3,7,10-tetraazatricyclo[7.4.0.0^2,6]trideca-1(9),3,5,7-tetraen-10-yl}phenyl)-2,2,2-trifluoroethyl]-N,3-dimethyl-2-oxo-1,3-oxazolidine-4-carboxamide]	52 nM	153 nM
CN(C(=O)[C@H]1CC12CCS(=O)(=O)CC2)[C@@H](c1ccc(N2CCCc3c2cnc2cc(Cl)nn32)cc1)C(F)(F)F (relative stereo) [CPD0073922, (1rel-S)-N-[(1S)-1-(4-{4-chloro-2,3,7,10-tetraazatricyclo[7.4.0.0^2,6]trideca-1(9),3,5,7-tetraen-10-yl}phenyl)-2,2,2-trifluoroethyl]-N-methyl-6,6-dioxo-6λ^6-thiaspiro[2.5]octane-1-carboxamide]	173 nM	994 nM
CN(C(=O)[C@@H]1CS(=O)(=O)CC12CC2)[C@@H](c1ccc(N2CCCc3c2cnc2cc(Cl)nn32)cc1)C(F)(F)F (relative stereo) [CPD0073968, (7rel-R)-N-[(1S)-1-(4-{4-chloro-2,3,7,10-tetraazatricyclo[7.4.0.0^2,6]trideca-1(9),3,5,7-tetraen-10-yl}phenyl)-2,2,2-trifluoroethyl]-N-methyl-5,5-dioxo-5λ^6-thiaspiro[2.4]heptane-7-carboxamide]	100 nM	199 nM
CN(C(=O)[C@@H]1CCN(C(=O)CO)C1)[C@@H](c1ccc(N2CCCc3c2cnc2cc(Cl)nn32)cc1)C(F)(F)F (relative stereo) [CPD0073976, (3 rel-R)—N-[(1S)-1-(4-{4-chloro-2,3,7,10-tetraazatricyclo[7.4.0.0^2,6]trideca-1(9),3,5,7-tetraen-10-yl}phenyl)-2,2,2-trifluoroethyl]-1-(2-hydroxyacetyl)-N-methylpyrrolidine-3-carboxamide]	57 nM	149 nM
CN(C(=O)[C@H]1CCN(C(=O)CO)C1)[C@@H](c1ccc(N2CCCc3c2cnc2cc(Cl)nn32)cc1)C(F)(F)F (relative stereo) [CPD0073977, (3rel-S)—N-[(1S)-1-(4-{4-chloro-2,3,7,10-tetraazatricyclo[7.4.0.0^2,6]trideca-1(9),3,5,7-tetraen-10-yl}phenyl)-2,2,2-trifluoroethyl]-1-(2-hydroxyacetyl)-N-methylpyrrolidine-3-carboxamide]	39 nM	115 nM
C[C@@H]1CCN(c2ccc([C@H](N(C)C(=O)[C@H]3CCC(=O)NC3)C(F)(F)F)cc2)c2cnc3cc(Cl)nn3c21 (relative stereo) [CPD0074549, (3rel-S)-N-[(1S)-1-[4-[(13rel-R)-4-chloro-13-methyl-2,3,7,10-tetrazatricyclo[7.4.0.0^2,6]trideca-1(9),3,5,7-tetraen-10-yl]phenyl]-2,2,2-trifluoro-ethyl]-N-methyl-6-oxo-piperidine-3-carboxamide]	37 nM	142 nM
C[C@@H]1CCN(c2ccc([C@H](N(C)C(=O)[C@H]3CC[S@@](=N)(=O)CC3)C(F)(F)F)cc2)c2cnc3cc(F)nn3c21 (relative stereo) [CPD0074556, (1rel r, 4rel r)1-imino-N-methyl-1-oxo-N-[(1S)-2,2,2-trifluoro-1-[4-[(13 rel R)-4-fluoro-13-methyl-2,3,7,10-tetrazatricyclo[7.4.0.0^2,6]trideca-1(9),3,5,7-tetraen-10-yl]phenyl]ethyl]thiane-4-carboxamide]	62 nM	168 nM
C[C@H]1CCN(c2ccc([C@H](N(C)C(=O)[C@@H]3CCC(=O)NC3)C(F)(F)F)cc2)c2cnc3cc(Cl)nn3c21 (relative stereo) [CPD0074567, (3rel-R)-N-[(1S)-1-[4-[(13rel-S)-4-chloro-13-methyl-2,3,7,10-tetrazatricyclo[7.4.0.0^2,6]trideca-1(9),3,5,7-tetraen-10-yl]phenyl]-2,2,2-trifluoro-ethyl]-N-methyl-6-oxo-piperidine-3-carboxamide]	31 nM	87 nM
COCC(=O)N1CC[C@H](C(=O)N(C)[C@@H](c2ccc(N3CCCc4c3cnc3cc(Cl)nn43)cc2)C(F)(F)F)C1 (relative stereo) [CPD0075874, (3rel-R)-N-[(1S)-1-[4-(4-chloro-2,3,7,10-tetrazatricyclo[7.4.0.0^2,6]trideca-1(9),3,5,7-tetraen-10-yl)phenyl]-2,2,2-trifluoro-ethyl]-1-(2-methoxyacetyl)-N-methyl-pyrrolidine-3-carboxamide]	95 nM	230 nM

Other lines, results leading:

IC50 [1]	IC50 [2]	SMILES
109 nM	186 nM	CN(C(=O)[C@@H]1CC12CCS(=O)(=O)CC2)[C@@H](c1ccc(N2CCCc3c2cnc2cc(Cl)nn32)cc1)C(F)(F)F (relative stereo) [CPD0073921, (1rel-R)-N-[(1S)-1-(4-{4-chloro-2,3,7,10-tetraazatricyclo[7.4.0.0^2,6]trideca-1(9),3,5,7-tetraen-10-yl}phenyl)-2,2,2-trifluoroethyl]-N-methyl-6,6-dioxo-6λ^6-thiaspiro[2.5]octane-1-carboxamide]
57 nM	149 nM	CN(C(=O)[C@@H](O)C1CCS(=O)(=O)CC1)[C@@H](c1ccc(N2CCCc3c2cnc2cc(Cl)nn32)cc1)C(F)(F)F (relative stereo) [CPD0073973, (2rel-S)—N-[(1S)-1-(4-{4-chloro-2,3,7,10-tetraazatricyclo[7.4.0.0^2,6]trideca-1(9),3,5,7-tetraen-10-yl}phenyl)-2,2,2-trifluoroethyl]-2-(1,1-dioxo-1λ^e-thian-4-yl)-2-hydroxy-N-methylacetamide]
35 nM	101 nM	C[C@@H]1CCN(c2ccc([C@H](N(C)C(=O)[C@H]3CC[S@](=N)(=O)CC3)C(F)(F)F)cc2)c2cnc3cc(F)nn3c21 (relative stereo) [CPD0074555, (1rel s, 4rel s)1-imino-N-methyl-1-oxo-N-[(1S)-2,2,2-trifluoro-1-[4-[(13 rel R)-4-fluoro-13-methyl-2,3,7,10-tetrazatricyclo[7.4.0.0^2,6]trideca-1(9),3,5,7-tetraen-10-yl]phenyl]ethyl]thiane-4-carboxamide]
29 nM	92 nM	C[C@@H]1CCN(c2ccc([C@H](N(C)C(=O)[C@@H]3CCC(=O)NC3)C(F)(F)F)cc2)c2cnc3cc(Cl)nn3c21 (relative stereo) [CPD0074561, (3rel-R)-N-[(1S)-1-[4-[(13rel-R)-4-chloro-13-methyl-2,3,7,10-tetrazatricyclo[7.4.0.0^2,6]trideca-1(9),3,5,7-tetraen-10-yl]phenyl]-2,2,2-trifluoro-ethyl]-N-methyl-6-oxo-piperidine-3-carboxamide]
54 nM	58 nM	CC(=O)N1CCC(C(=O)N(C)[C@@H](c2ccc(N3CC[C@H](C)c4c3cnc3cc(Cl)nn43)cc2)C(F)(F)F)CC1 (relative stereo) [CPD0074566, 1-Acetyl-N-[(1S)-1-[4-[(13rel-R)-4-chloro-13-methyl-2,3,7,10-tetrazatricyclo[7.4.0.0^2,6]trideca-1(9),3,5,7-tetraen-10-yl]phenyl]-2,2,2-trifluoro-ethyl]-N-methyl-piperidine-4-carboxamide]
85 nM	116 nM	COCC(=O)N1CC[C@@H](C(=O)N(C)[C@@H](c2ccc(N3CCCc4c3cnc3cc(Cl)nn43)cc2)C(F)(F)F)C1 (relative stereo) [CPD0075875, (3rel-S)-N-[(1S)-1-[4-(4-chloro-2,3,7,10-tetrazatricyclo[7.4.0.0^2,6]trideca-1(9),3,5,7-tetraen-10-yl)phenyl]-2,2,2-trifluoro-ethyl]-1-(2-methoxyacetyl)-N-methyl-pyrrolidine-3-carboxamide]
138 nM	207 nM	CN(C)CC(=O)N1CC[C@H](C(=O)N(C)[C@@H](c2ccc(N3CCCc4c3cnc3cc(Cl)nn43)cc2)C(F)(F)F)C1 (relative stereo) [CPD0075876, (3rel-R)-N-[(1S)-1-[4-(4-chloro-2,3,7,10-tetrazatricyclo[7.4.0.0^2,6]trideca-1(9),3,5,7-tetraen-10-yl)phenyl]-2,2,2-trifluoro-ethyl]-1-[2-(dimethylamino)acetyl]-N-methyl-pyrrolidine-3-carboxamide]
115 nM	172 nM	CN(C)CC(=O)N1CC[C@@H](C(=O)N(C)[C@@H](c2ccc(N3CCCc4c3cnc3cc(Cl)nn43)cc2)C(F)(F)F)C1 (relative stereo) [CPD0075877, (3rel-S)-N-[(1S)-1-[4-(4-chloro-2,3,7,10-tetrazatricyclo[7.4.0.0^2,6]trideca-1(9),3,5,7-tetraen-10-yl)phenyl]-2,2,2-trifluoro-ethyl]-1-[2-(dimethylamino)acetyl]-N-methyl-pyrrolidine-3-carboxamide]
99 nM	363 nM	CNCC(=O)N1CC[C@H](C(=O)N(C)[C@@H](c2ccc(N3CCCc4c3cnc3cc(Cl)nn43)cc2)C(F)(F)F)C1 (relative stereo) [CPD0075880, (3 rel-R)—N-[(1S)-1-[4-(4-chloro-2,3,7,10-tetrazatricyclo[7.4.0.0^2,6]trideca-1(9),3,5,7-tetraen-10-yl)phenyl]-2,2,2-trifluoro-ethyl]-N-methyl-1-[2-(methylamino)acetyl]pyrrolidine-3-carboxamide hydrochloride]
